Results published in the NIST ThermoML archive (doi:10.1016/j.jct.2014.04.016).

Settings: for electrical conductivity / viscosity / mass density: 101.33 kPa, Liquid; for electrical conductivity: Alternating current cell with electrodes; for viscosity: Concentric cylinders viscometry; for mass density: Vibrating tube method

CCCCCCCCOS(=O)(=O)[O-].CCn1cc[n+](C)c1 [1-ethyl-3-methylimidazolium octyl sulfate]
Settings | electrical conductivity [S/m] | mass density [kg/m3] | viscosity [mPa·s]
258.1 K | 0.002 | – | –
263.1 K | 0.003 | – | –
268.1 K | 0.005 | – | –
273.1 K | 0.008 | 1110.8 | 4561
278.1 K | 0.012 | 1107.4 | 2822
283.1 K | 0.017 | 1103.9 | 1815
288.1 K | 0.025 | 1100.5 | 1207
293.1 K | 0.034 | 1097.1 | 826.7
298.1 K | 0.046 | 1093.7 | 581
303.1 K | 0.06 | 1090.2 | 421.7
308.1 K | 0.078 | 1086.9 | 311.7
313.1 K | 0.098 | 1083.6 | 233.3
318.1 K | 0.124 | 1080.3 | 179.1
323.1 K | 0.153 | 1077.1 | 139.8
328.1 K | 0.193 | 1073.9 | 110.9
333.1 K | 0.232 | 1070.7 | 89.14
338.1 K | 0.279 | 1067.5 | 72.56
343.1 K | 0.329 | 1064.4 | 59.81
348.1 K | 0.385 | 1061.2 | 49.83
353.1 K | 0.447 | 1058.1 | 41.94
358.1 K | 0.514 | 1054.9 | 35.63
363.1 K | 0.584 | 1051.8 | 30.53
368.1 K | 0.661 | 1048.8 | 26.36
373.1 K | 0.731 | 1045.7 | 22.92

Settings | Normal melting temperature [°C]
Crystal, visual observation | 10
